Measured values from PMC4979471 (Cell Death Discovery, 2015).
Where two headings read alike, the source gives them in different places.

How the values were obtained:
Assay in all cases: Kinase selectivity, P33-radiolabeled assay
Assay type in all cases: biochemical
Details in all cases: 10 μM ATP
P38d/MAPK13 = target: T1, P38d/MAPK13 (Homo sapiens, UniProt O15264)
T1 construct: purchased Reaction Biology Corp
T1 sequence (O15264 1-365): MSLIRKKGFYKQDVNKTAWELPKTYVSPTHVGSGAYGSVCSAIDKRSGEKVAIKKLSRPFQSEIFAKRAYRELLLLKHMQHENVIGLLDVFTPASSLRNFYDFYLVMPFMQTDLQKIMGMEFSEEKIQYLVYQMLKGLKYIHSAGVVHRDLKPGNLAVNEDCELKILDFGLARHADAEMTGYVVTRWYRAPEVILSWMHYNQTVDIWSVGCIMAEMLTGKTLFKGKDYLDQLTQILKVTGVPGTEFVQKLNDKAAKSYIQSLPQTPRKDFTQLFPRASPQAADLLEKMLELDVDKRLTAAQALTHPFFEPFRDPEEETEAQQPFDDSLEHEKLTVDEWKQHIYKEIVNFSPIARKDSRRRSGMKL
Outline: (§1)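 Percent residual kinase activity versus DMSO is reported. Conditions: compound at 10 μM, ATP at 10 μM, n = 2.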

ASK1/MAP3K5 = target: T2, ASK1/MAP3K5 (Homo sapiens, UniProt Q99683)
T2 construct: purchased Reaction Biology Corp
T2 sequence (Q99683 1-1374): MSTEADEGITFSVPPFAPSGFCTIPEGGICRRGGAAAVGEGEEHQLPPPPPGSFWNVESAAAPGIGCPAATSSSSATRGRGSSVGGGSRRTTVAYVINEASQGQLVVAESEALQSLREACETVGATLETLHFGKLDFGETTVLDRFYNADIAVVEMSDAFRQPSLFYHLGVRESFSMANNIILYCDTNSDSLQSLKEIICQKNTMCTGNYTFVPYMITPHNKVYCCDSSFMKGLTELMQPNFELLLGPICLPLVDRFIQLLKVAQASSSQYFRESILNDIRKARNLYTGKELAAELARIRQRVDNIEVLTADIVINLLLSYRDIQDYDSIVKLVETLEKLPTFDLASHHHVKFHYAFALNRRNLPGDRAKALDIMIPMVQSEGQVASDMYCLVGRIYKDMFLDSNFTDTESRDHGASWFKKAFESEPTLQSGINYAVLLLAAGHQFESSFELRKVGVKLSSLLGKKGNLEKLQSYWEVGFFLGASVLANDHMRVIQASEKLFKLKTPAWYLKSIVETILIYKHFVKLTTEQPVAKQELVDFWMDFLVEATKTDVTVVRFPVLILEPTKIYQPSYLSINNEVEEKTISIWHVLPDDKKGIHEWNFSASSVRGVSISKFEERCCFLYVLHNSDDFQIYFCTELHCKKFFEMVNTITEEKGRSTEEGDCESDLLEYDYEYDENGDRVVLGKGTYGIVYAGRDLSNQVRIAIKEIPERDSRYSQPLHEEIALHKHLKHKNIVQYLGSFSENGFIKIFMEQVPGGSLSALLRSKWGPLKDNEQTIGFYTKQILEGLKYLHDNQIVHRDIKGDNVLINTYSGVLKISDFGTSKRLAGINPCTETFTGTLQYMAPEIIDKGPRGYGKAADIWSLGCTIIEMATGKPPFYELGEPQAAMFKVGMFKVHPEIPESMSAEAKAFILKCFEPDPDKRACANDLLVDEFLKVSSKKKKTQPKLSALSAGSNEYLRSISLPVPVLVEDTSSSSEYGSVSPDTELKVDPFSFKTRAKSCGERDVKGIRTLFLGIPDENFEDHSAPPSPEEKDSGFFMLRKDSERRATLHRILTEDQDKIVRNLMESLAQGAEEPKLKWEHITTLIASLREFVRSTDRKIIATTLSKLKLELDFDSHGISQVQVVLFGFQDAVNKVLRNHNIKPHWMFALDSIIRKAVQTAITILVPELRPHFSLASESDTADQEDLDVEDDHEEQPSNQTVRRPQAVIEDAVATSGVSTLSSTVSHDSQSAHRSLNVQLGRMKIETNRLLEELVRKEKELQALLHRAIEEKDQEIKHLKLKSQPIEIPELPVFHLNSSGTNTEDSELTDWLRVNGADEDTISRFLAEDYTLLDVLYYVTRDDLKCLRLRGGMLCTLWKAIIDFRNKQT
Outline: as §1

GSK3b = target: T3, GSK3b (Homo sapiens, UniProt P49841)
T3 construct: purchased Reaction Biology Corp
T3 sequence (P49841 whole entry): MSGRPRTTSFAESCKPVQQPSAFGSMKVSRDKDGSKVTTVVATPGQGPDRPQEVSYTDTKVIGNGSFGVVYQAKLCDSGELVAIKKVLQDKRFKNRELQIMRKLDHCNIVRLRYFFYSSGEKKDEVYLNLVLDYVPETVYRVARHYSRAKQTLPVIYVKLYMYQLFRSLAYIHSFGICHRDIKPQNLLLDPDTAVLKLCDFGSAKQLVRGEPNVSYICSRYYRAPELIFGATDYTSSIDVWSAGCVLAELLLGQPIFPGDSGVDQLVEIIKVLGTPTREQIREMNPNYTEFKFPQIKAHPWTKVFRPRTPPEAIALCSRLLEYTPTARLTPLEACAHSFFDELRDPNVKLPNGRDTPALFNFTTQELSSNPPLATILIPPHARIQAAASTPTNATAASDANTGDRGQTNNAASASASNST
Outline: as §1

TRKA = target: T4, TRKA (Homo sapiens, UniProt P04629)
T4 construct: purchased Reaction Biology Corp
T4 sequence (P04629 33-796): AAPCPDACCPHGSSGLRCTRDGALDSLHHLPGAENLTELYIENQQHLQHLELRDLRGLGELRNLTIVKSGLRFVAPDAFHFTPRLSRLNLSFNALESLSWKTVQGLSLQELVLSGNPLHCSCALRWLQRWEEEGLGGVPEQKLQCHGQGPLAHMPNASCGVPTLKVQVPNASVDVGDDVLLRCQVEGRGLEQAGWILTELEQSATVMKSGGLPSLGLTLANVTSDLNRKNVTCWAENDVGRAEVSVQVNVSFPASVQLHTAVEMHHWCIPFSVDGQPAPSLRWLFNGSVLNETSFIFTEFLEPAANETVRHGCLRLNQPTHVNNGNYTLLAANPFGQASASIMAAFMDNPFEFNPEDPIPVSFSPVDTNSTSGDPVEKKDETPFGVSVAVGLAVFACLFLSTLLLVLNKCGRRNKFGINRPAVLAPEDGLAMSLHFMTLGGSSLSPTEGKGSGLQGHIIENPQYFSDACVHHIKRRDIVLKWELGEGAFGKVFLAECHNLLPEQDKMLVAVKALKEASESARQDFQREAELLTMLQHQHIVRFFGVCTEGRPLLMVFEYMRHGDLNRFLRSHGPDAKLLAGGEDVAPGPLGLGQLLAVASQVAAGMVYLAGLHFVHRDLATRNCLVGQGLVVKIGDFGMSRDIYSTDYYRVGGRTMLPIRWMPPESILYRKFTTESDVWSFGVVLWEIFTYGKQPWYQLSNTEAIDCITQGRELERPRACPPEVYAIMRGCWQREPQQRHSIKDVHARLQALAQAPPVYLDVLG
Outline: as §1

CK2a2 = target: T5, CK2a2 (Homo sapiens, UniProt P19784)
T5 construct: purchased Reaction Biology Corp
T5 sequence (P19784 whole entry): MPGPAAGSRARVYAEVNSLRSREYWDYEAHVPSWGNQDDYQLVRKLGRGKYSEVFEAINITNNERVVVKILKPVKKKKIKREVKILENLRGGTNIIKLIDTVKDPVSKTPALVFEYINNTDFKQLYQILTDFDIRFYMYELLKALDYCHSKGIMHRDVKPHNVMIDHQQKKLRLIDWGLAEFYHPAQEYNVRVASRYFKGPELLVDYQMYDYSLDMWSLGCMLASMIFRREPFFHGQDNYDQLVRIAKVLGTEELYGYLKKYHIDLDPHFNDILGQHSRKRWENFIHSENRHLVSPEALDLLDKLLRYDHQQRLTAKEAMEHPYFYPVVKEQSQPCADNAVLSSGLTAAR
Outline: as §1

P38g = target: T6, P38g (Homo sapiens, UniProt P53778)
T6 construct: purchased Reaction Biology Corp
T6 sequence (P53778 1-367): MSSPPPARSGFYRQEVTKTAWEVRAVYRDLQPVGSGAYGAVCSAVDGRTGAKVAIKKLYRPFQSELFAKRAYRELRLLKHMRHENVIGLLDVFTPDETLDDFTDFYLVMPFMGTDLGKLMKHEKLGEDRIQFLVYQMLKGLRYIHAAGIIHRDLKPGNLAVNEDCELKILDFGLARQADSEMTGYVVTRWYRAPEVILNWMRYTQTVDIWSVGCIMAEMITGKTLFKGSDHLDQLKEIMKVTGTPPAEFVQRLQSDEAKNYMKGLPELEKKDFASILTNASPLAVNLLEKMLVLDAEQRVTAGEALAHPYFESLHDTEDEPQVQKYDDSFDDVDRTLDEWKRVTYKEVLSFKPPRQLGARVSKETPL
Outline: as §1

FGFR4 = target: T7, FGFR4 (Homo sapiens, UniProt P22455)
T7 construct: purchased Reaction Biology Corp
T7 sequence (P22455 22-802): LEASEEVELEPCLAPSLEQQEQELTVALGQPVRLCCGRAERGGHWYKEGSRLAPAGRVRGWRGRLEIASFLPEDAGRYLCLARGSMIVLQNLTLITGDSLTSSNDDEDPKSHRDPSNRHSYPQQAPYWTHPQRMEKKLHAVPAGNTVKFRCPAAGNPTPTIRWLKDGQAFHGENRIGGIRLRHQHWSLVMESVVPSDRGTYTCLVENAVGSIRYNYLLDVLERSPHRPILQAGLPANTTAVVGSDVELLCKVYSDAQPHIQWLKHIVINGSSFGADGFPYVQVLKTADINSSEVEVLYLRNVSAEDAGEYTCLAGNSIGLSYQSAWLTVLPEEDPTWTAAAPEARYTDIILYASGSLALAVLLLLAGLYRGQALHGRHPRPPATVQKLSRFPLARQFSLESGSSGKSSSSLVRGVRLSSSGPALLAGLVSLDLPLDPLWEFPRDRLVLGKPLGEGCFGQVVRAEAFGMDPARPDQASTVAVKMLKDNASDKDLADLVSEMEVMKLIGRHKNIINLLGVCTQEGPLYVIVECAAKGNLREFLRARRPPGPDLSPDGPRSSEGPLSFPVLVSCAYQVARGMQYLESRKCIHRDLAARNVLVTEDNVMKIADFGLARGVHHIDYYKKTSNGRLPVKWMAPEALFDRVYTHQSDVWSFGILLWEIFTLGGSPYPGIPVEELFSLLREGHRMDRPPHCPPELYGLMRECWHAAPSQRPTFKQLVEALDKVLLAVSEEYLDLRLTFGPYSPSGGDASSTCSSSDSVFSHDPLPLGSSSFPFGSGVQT
Outline: as §1

MLK2/MAP3K10 = target: T8, MLK2/MAP3K10 (Homo sapiens, UniProt Q02779)
T8 construct: purchased Reaction Biology Corp
T8 sequence (Q02779 whole entry): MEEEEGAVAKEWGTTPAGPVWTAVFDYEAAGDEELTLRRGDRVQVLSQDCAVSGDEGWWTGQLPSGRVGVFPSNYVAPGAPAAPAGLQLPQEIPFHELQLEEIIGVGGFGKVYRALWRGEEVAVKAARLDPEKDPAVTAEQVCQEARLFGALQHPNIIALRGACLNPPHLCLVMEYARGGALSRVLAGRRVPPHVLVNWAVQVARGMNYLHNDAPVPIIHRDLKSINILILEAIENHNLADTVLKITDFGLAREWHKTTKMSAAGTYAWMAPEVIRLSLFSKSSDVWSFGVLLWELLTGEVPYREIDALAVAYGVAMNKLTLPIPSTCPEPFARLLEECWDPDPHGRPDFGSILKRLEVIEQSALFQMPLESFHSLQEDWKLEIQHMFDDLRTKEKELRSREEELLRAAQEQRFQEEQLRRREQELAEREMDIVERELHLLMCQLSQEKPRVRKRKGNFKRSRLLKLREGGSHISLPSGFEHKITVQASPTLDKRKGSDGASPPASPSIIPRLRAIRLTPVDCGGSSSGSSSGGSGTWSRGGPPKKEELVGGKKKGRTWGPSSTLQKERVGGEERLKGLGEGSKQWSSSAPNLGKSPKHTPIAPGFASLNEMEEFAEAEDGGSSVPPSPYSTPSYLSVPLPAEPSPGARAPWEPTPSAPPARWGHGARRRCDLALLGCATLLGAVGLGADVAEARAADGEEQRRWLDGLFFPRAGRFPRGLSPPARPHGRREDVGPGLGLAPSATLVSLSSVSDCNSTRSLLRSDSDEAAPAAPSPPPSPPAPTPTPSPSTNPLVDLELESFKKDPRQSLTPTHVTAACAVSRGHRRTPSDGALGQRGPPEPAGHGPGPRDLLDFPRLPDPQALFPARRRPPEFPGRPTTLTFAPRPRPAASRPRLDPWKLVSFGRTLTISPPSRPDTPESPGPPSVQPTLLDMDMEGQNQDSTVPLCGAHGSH
Outline: as §1

CDK9/cyclin K = target: T9, CDK9/cyclin K (Homo sapiens, UniProt P50750)
T9 construct: purchased Reaction Biology Corp
T9 sequence (P50750 whole entry): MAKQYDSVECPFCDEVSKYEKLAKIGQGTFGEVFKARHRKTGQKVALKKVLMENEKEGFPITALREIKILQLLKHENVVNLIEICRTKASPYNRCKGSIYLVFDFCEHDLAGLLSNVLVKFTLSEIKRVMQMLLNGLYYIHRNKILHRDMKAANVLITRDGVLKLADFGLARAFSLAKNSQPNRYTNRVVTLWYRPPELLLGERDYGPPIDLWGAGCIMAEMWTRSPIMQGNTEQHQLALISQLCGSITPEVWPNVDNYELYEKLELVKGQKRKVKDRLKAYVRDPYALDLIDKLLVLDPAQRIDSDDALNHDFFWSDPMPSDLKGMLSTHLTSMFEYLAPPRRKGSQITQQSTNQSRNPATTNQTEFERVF
T9 sequence (O75909 whole entry partner): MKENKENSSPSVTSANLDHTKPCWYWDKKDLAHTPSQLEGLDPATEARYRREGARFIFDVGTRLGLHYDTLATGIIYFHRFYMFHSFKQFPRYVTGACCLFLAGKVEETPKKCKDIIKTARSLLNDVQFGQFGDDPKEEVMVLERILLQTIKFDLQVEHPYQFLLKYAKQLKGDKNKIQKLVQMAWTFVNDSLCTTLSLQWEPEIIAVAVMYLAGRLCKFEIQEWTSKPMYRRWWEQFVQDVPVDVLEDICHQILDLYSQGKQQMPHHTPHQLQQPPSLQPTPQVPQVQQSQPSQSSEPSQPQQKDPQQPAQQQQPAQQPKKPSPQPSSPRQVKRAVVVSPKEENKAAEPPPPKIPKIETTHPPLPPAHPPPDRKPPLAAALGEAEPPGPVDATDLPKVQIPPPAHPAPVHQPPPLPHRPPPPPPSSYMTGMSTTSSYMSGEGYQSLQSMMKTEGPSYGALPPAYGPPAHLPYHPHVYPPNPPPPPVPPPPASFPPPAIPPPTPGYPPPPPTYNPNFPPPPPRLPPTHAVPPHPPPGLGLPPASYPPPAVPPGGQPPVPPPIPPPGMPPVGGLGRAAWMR
Outline: as §1

CLK4 = target: T10, CLK4 (Homo sapiens, UniProt Q9HAZ1)
T10 construct: purchased Reaction Biology Corp
T10 sequence (Q9HAZ1 whole entry): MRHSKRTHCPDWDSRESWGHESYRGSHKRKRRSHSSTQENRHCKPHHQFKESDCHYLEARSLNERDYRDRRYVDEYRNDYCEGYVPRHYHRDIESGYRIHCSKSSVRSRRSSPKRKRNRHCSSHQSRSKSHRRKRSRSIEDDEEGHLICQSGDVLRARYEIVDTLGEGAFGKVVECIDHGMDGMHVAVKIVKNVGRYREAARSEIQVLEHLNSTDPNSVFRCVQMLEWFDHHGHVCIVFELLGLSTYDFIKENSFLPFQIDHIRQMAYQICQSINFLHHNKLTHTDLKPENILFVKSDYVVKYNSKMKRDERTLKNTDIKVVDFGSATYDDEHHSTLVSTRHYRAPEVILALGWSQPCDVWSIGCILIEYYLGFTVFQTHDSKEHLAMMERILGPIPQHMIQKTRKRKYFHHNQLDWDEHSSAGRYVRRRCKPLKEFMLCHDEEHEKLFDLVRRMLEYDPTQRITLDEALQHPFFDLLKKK
Outline: as §1

[1] = read-out: % Enzyme Activity (relative to DMSO controls) AVG
[2] = read-out: % Enzyme Activity (relative to DMSO controls) Data 1
[3] = read-out: % Enzyme Activity (relative to DMSO controls) Data 2

CC(C)(C)C(=O)N1N=CC[C@H]1c1ccccc1 [GSK′963]
remaining activity at 10 µM (P38d/MAPK13; [1]): 100%
remaining activity at 10 µM (P38d/MAPK13; [2]): 99.8%
remaining activity at 10 µM (P38d/MAPK13; [3]): 101%
remaining activity at 10 µM (ASK1/MAP3K5; [1]): 98.8%
remaining activity at 10 µM (ASK1/MAP3K5; [2]): 99.4%
remaining activity at 10 µM (ASK1/MAP3K5; [3]): 98.1%
remaining activity at 10 µM (GSK3b; [1]): 98.7%
remaining activity at 10 µM (GSK3b; [2]): 98.8%
remaining activity at 10 µM (GSK3b; [3]): 98.6%
remaining activity at 10 µM (TRKA; [1]): 99.8%
remaining activity at 10 µM (TRKA; [2]): 98.2%
remaining activity at 10 µM (TRKA; [3]): 101%
remaining activity at 10 µM (CK2a2; [1]): 107%
remaining activity at 10 µM (CK2a2; [2]): 108%
remaining activity at 10 µM (CK2a2; [3]): 107%
remaining activity at 10 µM (P38g; [1]): 101%
remaining activity at 10 µM (P38g; [2]): 103%
remaining activity at 10 µM (P38g; [3]): 98.7%
remaining activity at 10 µM (FGFR4; [1]): 93.5%
remaining activity at 10 µM (FGFR4; [2]): 91.5%
remaining activity at 10 µM (FGFR4; [3]): 95.6%
remaining activity at 10 µM (MLK2/MAP3K10; [1]): 99.4%
remaining activity at 10 µM (MLK2/MAP3K10; [2]): 98.6%
remaining activity at 10 µM (MLK2/MAP3K10; [3]): 100%
remaining activity at 10 µM (CDK9/cyclin K; [1]): 114%
remaining activity at 10 µM (CDK9/cyclin K; [2]): 112%
remaining activity at 10 µM (CDK9/cyclin K; [3]): 116%
remaining activity at 10 µM (CLK4; [1]): 100%
remaining activity at 10 µM (CLK4; [2]): 101%
remaining activity at 10 µM (CLK4; [3]): 99.8%
